Measurements published in patent publication US20250017964A1, “ENGINEERING OR INDUCING PDGF AND/OR PDGFR SIGNALING TO ENHANCE NK CELL THERAPY” (City of Hope, priority 2021, published 2025).
*1 amine or outer side, *2 acyl side, *3 side chain or, on linkers, in order; H or OH if unused. Where a SMILES comes first, the peptide text is derived from it. Bridges are numbered along the chain shown (N, C = ends). Roman numbers before positions name the chains, in order. [ ]: non-standard residue; d: D form. Actinocin(9to1) = Cc1c2oc3c(C)ccc(C(=O)[*:1])c3nc-2c(C(=O)[*:2])c(N)c1=O; NMeV = CN[C@H](C(=O)O)C(C)C; Sar = CNCC(=O)O

Legend:
[1] = test system: IL-15-induced PDGFRβ expression; experiment: Inhibition assay: IL-15-induced PDGFRβ expression after inhibitor pretreatment, flow cytometry; type: cell-based, human; details: washed, IL-15 10 ng/ml 24 h; for inhibition of PDGFRβ expression: DMSO control
Protocol: FIGS. 2A-2I. […] (A-B) Primary NK cells were treated with IL-15 (10 ng/ml) for the indicated times. mRNA levels of PDGFRB at different time points (A) (n=3) or at 1 h (B) (n=10) were examined by qPCR. (C-D) Primary NK cells were pretreated with actinomycin D (ActD, 5., g/ml) (C) or cycloheximide (CHX, 20 μg/ml) (D) for 1 h, washed twice with RPMI-1640, and then treated with IL-15 (10 ng/ml) for 24 h. DMSO was used as a control. Expression levels of PDGFRβ were examined by flow cytometry (n=5). […] (E) Primary NK cells were pretreated with wortmannin (1 μM), afuresertib (10 μM), TPCA-1 (1 μM), rapamycin (10 μM), torin1 (10 μM), decernotinib (10 μM), C118-9 (10 μM), STAT5-IN-1 (10 μM), AZD6244 (10 μM), or CI-1040 (10 μM) for 1 h, washed twice with RPMI 1640, and then treated with IL-15 (10 ng/ml) for 24 h. DMSO was used as control. Data shown are % of inhibition (n=5). The mean value of the inhibitory rate is shown. […] (G-I) Binding of p65 to the PDGFRB promoter in IL-15-treated NK cells (G) or resting NK cells (H) as determined by ChIP-qPCR or PCR (I) (n=3). Data represent three independent experiments. Data shown are means SD. NS, not significant. *P<0.05, **P<0.01, ***P<0.001, and ****P<0.0001.
FIGS. 8A-8E. […] (A) Scheme for the three IL-15 signaling pathways and their inhibitors. (B) Representative dot plots of PDGFRβ expression in NK cells treated with specific inhibitors. (C) Binding sites for p65 in the promoter regions of PDGFRB and PDGF-D genes (predicted from http://jaspar.genereg.net). […] The cells were collected for an immunoblot using anti-phosphor (p)-p65, anti-p65, and anti-actin antibodies. The ratios of p-p65 to actin were calculated using ImageJ (n=3). Data shown represent the mean±SD. NS, not significant, **P<0.01, ****P<0.0001.
(§1) NK cells were cultured in RPMI 1640 with 10% heat-inactivated FBS (Gibco) at 37° C. in a 5% CO2 humidified incubator. For NK cell transduction, PDGFRB cDNA ORF clone (Cat: HG10514-G) was purchased from Sino Biological and cloned into pCDH-CMV-MCS-EF1-copGFP lentivirus vector (System Biosciences). To produce lentivirus, we transfected the lentiviral transfer vector DNA, together with psPAX2 packaging (Addgene) and pMD2.G envelope plasmid DNA (Addgene), into HEK293T cells; using a polyethyenimine (PEI) transfection protocol (Polysciences). Concentrated lentivirus was added to primary NK cells cultured in RPMI 1640 medium supplemented with 10% FCS and 10 jig/mL polybrene with 2,000×g centrifugation for 2 h. Cells were cultured for an additional 48 h. […] The cells were then collected for flow cytometry analysis. For the inhibition assay, NK cells were pretreated with the indicated inhibitors for 1 h, washed twice with RPMI 1640. and then treated with IL-15 for 24 h.
Cells were stained with the indicated cell-surface markers and/or fixed/permeabilized using a Fixation/Permeabilization Kit (eBioscience). For intracellular staining of IFN-γ and PDGF-D, 5 μg/ml Brefeldin A (BioLegend) was added for 4 h before cell harvest. Intracellular staining of Ki67 was performed by fixing and permeabilizing with the Foxp3/Transcription Factor Staining Kit (eBioscience). For CD107a staining, CD107a antibody was added into the culture for 4 h in the presence of Brefeldin A. Annexin V staining was performed using an FITC Annexin V Apoptosis Detection Kit according to the manufacturer's protocol (BD Biosciences). Flow cytometry analysis was performed on BD LSRFortessa X-20 (BD Biosciences). Data were analyzed using NovoExpress software (Agilent Technologies).

[2] = test system: PDGFRβ expression in human NK cells; experiment: Cytokine-induced PDGFRβ expression in purified human NK cells, flow cytometry; type: cell-based; details: cytokine 10 ng/ml, 24 h; IL-15 effect dose- and time-dependent
Description: Data shown are the percentages of PDGFRβ^+ NK cells among total NK cells (n=5). […] Bar=20 μm. […] Data represent three independent experiments. Data shown are means SD.
FIGS. 7A-7F. […] Data shown are representative histograms and mean fluorescence intensity (MFI) of PDGFRα. […] Expression levels of PDGFRβ were examined by flow cytometry (n=6). […] Data shown are the percentages of PDGFRβ^+ NK cells among total NK cells (n=5). […] Data shown are representative histograms with MFI of PDGFRβ expression. (F) Expression levels of PDGFRβ on NK cells from IL-15 transgenic (Tg) mice were determined by flow cytometry. Data shown are representative histograms. Data represent three independent experiments.
as §1
Cells were stained with the indicated cell-surface markers and/or fixed/permeabilized using a Fixation/Permeabilization Kit (eBioscience). For intracellular staining of IFN-γ and PDGF-D, 5 μg/ml Brefeldin A (BioLegend) was added for 4 h before cell harvest. Intracellular staining of Ki67 was performed by fixing and permeabilizing with the Foxp3/Transcription Factor Staining Kit (eBioscience).

[3] = inhibitor 10 μM pretreatment 1 h
[4] = inhibitor 1 μM pretreatment 1 h

O=C(NOCC1CC1)c1ccc(F)c(F)c1Nc1ccc(I)cc1Cl [CI-1040]
effect on IL-15-induced PDGFRβ expression [1, 3]: either little inhibition or even promoted

COC[C@H]1OC(=O)c2coc3c2[C@@]1(C)C1=C(C3=O)[C@@H]2CCC(=O)[C@@]2(C)C[C@H]1OC(C)=O [wortmannin]
inhibition of PDGFRβ expression [1, 4]: ~70%

IL-18: recombinant human IL-18 (B001-5)
PDGFRβ expression [2]: ineffective

CCC(=O)N1CCN(c2ccc(-n3c(=O)ccc4cnc5ccc(-c6cnc7ccccc7c6)cc5c43)cc2C(F)(F)F)CC1 [torin1]
effect on IL-15-induced PDGFRβ expression [1, 3]: dramatically and significantly blocked

Cn1cnc2c(F)c(Nc3ccc(Br)cc3Cl)c(C(=O)NOCCO)cc21 [AZD6244]
effect on IL-15-induced PDGFRβ expression [1, 3]: either little inhibition or even promoted

CC[C@@](C)(Nc1ccnc(-c2c[nH]c3ncccc23)n1)C(=O)NCC(F)(F)F [decemotinib, decernotinib]
effect on IL-15-induced PDGFRβ expression [1, 3]: approximately one third

O=C(N/N=C/c1coc2ccccc2c1=O)c1cccnc1 [STAT5-IN-1]
effect on IL-15-induced PDGFRβ expression [1, 3]: either little inhibition or even promoted

Cn1ncc(Cl)c1-c1cc(C(=O)N[C@H](CN)Cc2cccc(F)c2)sc1Cl [afuresertib]
inhibition of PDGFRβ expression [1, 3]: ~70%

NC(=O)Nc1sc(-c2ccc(F)cc2)cc1C(N)=O [TPCA-1]
effect on IL-15-stimulated PDGFRβ expression [1, 4]: completely prevented

Cc1c2oc3c(C)ccc(C(=O)N[C@@H]4C(=O)N[C@H](C(C)C)C(=O)N5CCC[C@H]5C(=O)N(C)CC(=O)N(C)[C@@H](C(C)C)C(=O)O[C@@H]4C)c3nc-2c(C(=O)N[C@@H]2C(=O)N[C@H](C(C)C)C(=O)N3CCC[C@H]3C(=O)N(C)CC(=O)N(C)[C@@H](C(C)C)C(=O)O[C@@H]2C)c(N)c1=O [actinomycin D] (I: T[dV]P[Sar][NMeV] / II: T[dV]P[Sar][NMeV]; ester I:1-I:C, II:1-II:C; linker I:N-II:N via Actinocin(9to1))
effect on IL-15-induced PDGFRβ expression ([1]; ActD pretreatment 1 h): no longer induced PDGFRβ expression

C[C@@H]1C[C@@H]([C@H](O)CC2CC(=O)NC(=O)C2)C(=O)[C@@H](C)C1 [cycloheximide]
effect on IL-15-induced PDGFRβ expression ([1]; CHX, 20 μg/ml pretreatment 1 h): completely inhibited
